Entries after “also recorded” stand apart in the source; their conditions may differ.
Columns and labels:
[1] = tested on: RBE4 cells; test: γ-H2AX counts after local 3×3 mm X-ray irradiation (irradiated and bystander zones), RBE4 cells; assay type: cell-based, rat; settings: 1 Gy, 3 h post-irradiation, Cbx 50 μM, Gap26 161 μM, TAT-Gap19 200 μM, Xestospongin C 5 μM
Experimental: (§1) A defined area of the cell culture dishes were exposed to X-rays (1Gy or 20 Gy) by using a small animal radiation research platform (SARRP, Xstrahl, 220 kV, 13 mA), making use of a 3×3 mm collimator. Whole dish irradiation was done using a 10×10 cm broad-beam collimator, while localized Irradiation was performed with a 3×3 mm collimator. A Gafchromic RTQA2 film, with a sensitivity of 0.02 Gy, was placed underneath the cell dishes in order to delineate the irradiated zone.
(§2) Cells were fixed for 25 min with 4% formaldehyde (VWR) and blocked for 30 min with blocking buffer (5% normal goat serum, 1% bovine serum albumin (BSA), 0.2% Triton X-100 in PBS D+). Overnight incubation with primary antibody (1/500 anti-γ-H2AX in dilution buffer, 1/10 blocking buffer in PBS D+) was followed by a 1 h incubation with 1/400 XX-biotin-goat-anti-mouse antibody in dilution buffer, followed by a 1 h incubation with 1/400 streptavidin-alexa488 in PBS D+. Nuclei were stained with 1 μg/mL DAPI in PBS D+ for 10 min and cells were kept in PBS D+ supplemented with NaN3 at 4° C. All steps except the overnight incubation which was carried out at 4° C., were carried out at room temperature and cell cultures were rinsed thoroughly with PBS D+ between all incubation steps. Imaging was performed with an automated BD Pathway 435 imaging system (10× objective, 10×10 montage resulting in an overall image size of 8.5×6.5 mm). We then quantified the number of γ-H2AX-foci positive nuclei in the directly irradiated and bystander areas and expressed the count as a percentage relative to the number of nuclei and subtracted the percentage of background γ-H2AX signal in non-irradiated paired control cultures for each experiment. For counting γ-H2AX foci, images were thresholded to remove background pixel noise below the foci level. Where applicable, results were normalized against vehicle (bar charts with a 100% vehicle bar without statistical variability or a horizontal line).

[2] = tested on: primary brain microvascular endothelial cells (pBMECs); test: γ-H2AX counts after local 3×3 mm X-ray irradiation (irradiated and bystander zones), pBMECs; assay type: cell-based, mouse; settings: 1 Gy, 3 h post-irradiation
Experimental: Cortices, from 10-12 week old mice, were isolated by removing cerebellum, striatum, optic nerves, brain white matter, outer vessels and meninges. After homogenization with a Dounce homogenizer in WBB (Washing Buffer B: HMS, 10 mM Hepes, 0.35 g/L NaHCO3, 0.1% BSA), the homogenate was mixed with 30% dextran in WBB and centrifuged at 3000×g for 25 min at 4° C. The pellet containing the vascular component was then resuspended in WBB and filtered through a 60 μm NY60 Nylon Net Filter (Millipore, Darmstadt, Germany). Following centrifugation at 1000×g for 7 min at room temperature, the pellet was digested in collagenase/dispase supplement with DNase I (Roche Diagnostics, Vilvoorde, Belgium) and TLCK (Tosyl, Lysin chloromethyl ketone, sigma-aldrich) for 33 min at 37° C. in a shaking water bath. The digested capillary suspension was then seeded after multiple washing steps on wells coated with matrigel or glass coated with Corning Cell-Tak (VWR, Leuven, Belgium). For the isolation of intact capillaries the protocol was aborted just before the digestion step.
as §1, §2

[3] = tested on: RBE4 cells; test: Irradiation-induced ATP release, RBE4 cells; assay type: cell-based, rat; settings: broad-beam 1 Gy, 5 min post-irradiation, BAPTA-AM 10 μM, NALC 1 mM, c-PTIO 100 μM
Experimental: ATP was measured using a luciferin-luciferase assay kit (Sigma-Aldrich) in combination with a luminometer plate reader (Victor3 1420 multi label counter; Perkin Elmer, Zaventem, Belgium).
Extracellular ATP measurements were initially carried out at different time-points post-irradiation, the effect of blockers on ATP release was tested at the 5 min post-irradiation time-point (time of maximum ATP release).

[4] = tested on: RBE4 cells; test: γ-H2AX counts in electroporation-loaded bystander zone, RBE4 cells; assay type: cell-based, rat; settings: BH4-Bcl-2 20 μM, BAPTA 60 μM, SOD 100 μg/mL (3 μM)
Experimental: as §2
Cells were grown to near confluency on 4-well plates coated with collagen. Cell monolayer cultures were washed three times with HBSS-Hepes 25 mM (pH 7.2-7.4) and subsequently three times with a low conductivity electroporation buffer (4.02 mM KH2PO4, 10.8 mM K2HPO4, 1.0 mM MgCl2, 300 mM sorbitol, 2.0 mM Hepes, pH 7.4). They were placed 400 μm underneath a two-wire Pt-Ir electrode on the microscopic stage and electroporated in the presence of a tiny amount of electroporation solution (10 μl) containing 100 μg/mL SOD, 60 μM BAPTA or 20 μM BH4-Bcl2 combined with 100 μM 10 kDa DTR. […]

[5] = tested on: RBE4 cells; test: Cytosolic Ca2+ imaging after medium transfer from irradiated to recipient RBE4 cells; assay type: cell-based, rat
Experimental: Cells were seeded on glass coverslips (18 mm 0) coated with 3.5 μg/cm^2 Corning cell-tak (VWR, Leuven, Belgium) and ester loaded for 45 min with 10 μM Fluo-3-AM in HBSS-HEPES supplemented with 1 mM of probenecid and 0.01% of pluronic F127 at room temperature followed by de-esterification over 15 min. Imaging was performed using an inverted fluorescence microscope equipped with a ×40 oil immersion objective and an EM-CCD camera (QuantEM™ 512SC CCD camera, Photometrics, Tucson, Ariz.). For direct Ca^2+ measurements the loaded cells were irradiated and transferred to the microscopy stage. For medium transfer, the loaded cells were superfused for 1 min with HBSS-Hepes (1 mM), followed by 4 min with HBSS-Hepes conditioned by irradiated cultures. Fluorescence intensity changes in the cells were analyzed with custom-developed FluoFrames software (L. Leybaert, Ghent, Belgium). Ca^2+ changes were quantified as the area under the curve (AUC) of the Ca^2+ traces.

Molecule | γ-H2AX counts in the bystander zone (normalized to vehicle) [1] | γ-H2AX counts in the irradiated zone (normalized to vehicle) [1] | γ-H2AX counts in the bystander zone (normalized to vehicle) [2] | γ-H2AX counts in the irradiated area (normalized to vehicle) [2] | irradiation-induced ATP release [3] | also measured
CC(=O)OCOC(=O)CN(CC(=O)OCOC(C)=O)c1ccccc1OCCOc1ccccc1N(CC(=O)OCOC(C)=O)CC(=O)OCOC(C)=O [BAPTA-AM, 1.2-bis-(2-aminophynoxy)-ethane-N,N,N′,N′,tetraacetic acid acetoxy methyl ester] | less clear responses | less clear responses | significantly reduced the γ-H2AX scores in both areas; also recorded: almost zero | significantly reduced the γ-H2AX scores in both areas | inhibited irradiation-induced ATP release; also recorded: significantly decreased ATP release | 
O=C([O-])CN(CC(=O)[O-])c1ccccc1OCCOc1ccccc1N(CC(=O)[O-])CC(=O)[O-].[K+].[K+].[K+].[K+] [BAPTA] |  |  |  |  |  | γ-H2AX scores in the electroporation-loaded bystander zone (normalized to vehicle) [4]: significantly decreased γ-H2AX counts; also recorded: strongly reduced the γ-H2AX scores
CC(=O)N[C@@H](CS)C(=O)O [NALC, N-acetyl-L-cystein] | less clear responses | less clear responses | significantly reduced the γ-H2AX scores in both areas; also recorded: almost zero | significantly reduced the γ-H2AX scores in both areas | inhibited irradiation-induced ATP release; also recorded: significantly decreased ATP release | AUC of Ca2+ transients in recipient bystander cells ([5]; inhibitor added to the irradiated culture 30 min before irradiation, NALC 1 mM): reduced the area under the curve (AUC)
Cc1nc(N=Nc2ccc(S(=O)(=O)O)cc2S(=O)(=O)O)c(COP(=O)(O)O)c(C=O)c1O [PPADS, Pyridoxalphosphate-6-azopehyl-2′,4′-disolfonic acid] | significantly reduced γ-H2AX scores |  |  |  |  | [Ca2+]i responses in recipient cells ([5]; inhibitor added to the recipient cells, PPADS 50 μM): inhibited the [Ca^2]i responses
C1CCC[C@H]2CCCN3CC[C@@H](CCCCCC[C@@H]4CCCN5CC[C@@H](CC1)O[C@@H]45)O[C@@H]23 [Xestospongin C] | significantly reduced γ-H2AX counts in the bystander zone |  |  |  |  | 
CC1(C)N([O])C(c2ccc(C(=O)O)cc2)=[N+]([O-])C1(C)C [c-PTIO] | less clear responses | less clear responses | significantly reduced the γ-H2AX scores in both areas | significantly reduced the γ-H2AX scores in both areas | strongly reduced irradiation-induced ATP release | γ-H2AX counts in the bystander zone (normalized to vehicle) ([2]; listed as C-PTIO): almost zero; irradiation-induced ATP release ([3]; listed as C-PTIO): inhibited irradiation-induced ATP release
BH4-Bcl-2: IP3 receptor blocking peptide (amino acids 6-30 of Bcl-2; MW 3.6 kDa) (RTGYDNREIVMKYIHYKLSQRGYEW; UniProt P10415 6-30, looked up, fragment) |  |  |  |  |  | γ-H2AX scores in the electroporation-loaded bystander zone (normalized to vehicle) [4]: strongly reduced the γ-H2AX scores; γ-H2AX scores in the electroporation-loaded bystander zone (normalized to vehicle) ([4]; listed as BH4-Bcl2): significantly decreased γ-H2AX counts

— patent US20200384072A1, “THERAPY OF IONIZING RADIATION-INDUCED DISORDERS” (SCK-CEN, priority 2019, published 2020)
